# Measurements from paper PMC6796659, “Topoisomerase IB poisons induce histone H2A phosphorylation as a response to DNA damage in Leishmania infantum” (International Journal for Parasitology: Drugs and Drug …, 2019).
# Like-named read-outs stand apart in the source and are kept apart here.
# Legend:
# [1] = test system: iRFP L. infantum amastigotes infecting mouse splenocytes; conditions: ref Prada et al., 2013; cited from earlier work
# [2] = test system: histone H2A (Thr128) in L. infantum promastigotes; experiment: Histone H2A phosphorylation (γH2A) by Western blot; type: cell-based, Leishmania infantum; conditions: 10 μM, 0, 15, 60, 120 min
# Method: To detect H2A phosphorylation by L. infantum promastigotes, parasites in exponential growing phase (5–6 x 10^6 cells/mL) were incubated at 26 °C with CPT derivatives and indenoisoquinolines at a final concentration in the supplemented 199 standard medium of 10 μM. Control cells were treated with the drug vehicle DMSO using concentrations below 0.1%. After 0, 15, 60 and 120-min incubations, promastigotes were harvested by centrifugation, washed twice in PBS and the pellet resuspended in lysis buffer containing 50 mM Tris (pH:7), 50 mM NaCl, 20 mM NaF, 0.1% Tween 20 and 2x protease inhibitors (PIERCE™ protease inhibitor mini tablets). Twenty micrograms of the different extracts were loaded onto 15% SDS-PAGE gels, electrophoresed and transferred to PVDF membranes (Immobilon-FL, Millipore) using a mini trans-blot electrophoretic transfer cell (Bio-Rad). Polyclonal γH2A antisera were used at a 1:2000 dilution and secondary goat anti-rabbit IgG IRDye680 (Li-Cor Biosciences) was used at a 1:15000 dilution. The peptide competition assay was done incubating the polyclonal γH2A antisera with 50 ng/mL of the appropriate peptide (with and without phosphorylation at Thr residue) in blocking buffer for 1 h at room temperature before blotting. Loading control was performed using a monoclonal α tubulin mouse antibody at 2 μg/mL (final concentration) and a goat anti-mouse IgG IRDye 800 (Li-Cor Biosciences) as secondary antibody. Bands were visualized in an Odissey® (Li-Cor Biosciences) infrared detection facility. The quantification of γH2A signal was done with Bio-Rad Quantity One Analysis Software.
# [3] = test system: iRFP L. infantum promastigotes; experiment: Antileishmanial activity on free-living iRFP L. infantum promastigotes (infrared fluorescence viability); type: cell-based; conditions: Leishmania infantum, 72 h, 26 °C
# Method: Histone phosphorylation assays were performed in promastigotes of L. infantum BCN 150 strain, whereas the antiparasitic activity of the compounds was assessed on the transgenic strain that constitutively expresses the irfp gene encoding the infrared iRFP protein (iRFP L. infantum strain) ([Calvo-Álvarez et al., 2015]), which is derived from L. infantum BCN 150. Both strains were grown at 26 °C in M-199 medium (Gibco) supplemented with 25 mM HEPES pH 7.2, 0.1 mM adenine, 0.0005% (w/v) hemin, 2 μg/mL biopterin, 0.0001% (w/v) biotin, 10% (v/v) heat-inactivated fetal bovine serum (FBS) and an antibiotic cocktail comprising 50 U/mL penicillin and 50 μg/mL streptomycin.
# (§1) The antileishmanial activity of the compounds was tested both in promastigotes and in amastigotes infecting mouse splenocytes. For this purpose, 384-well optical bottom black plates (Thermo Scientific) were seeded either with free-living iRFP L. infantum promastigotes or with splenic explants infected with iRFP L. infantum amastigotes, which were incubated at 26 °C or 37 °C, respectively. The viability of both iRFP L. infantum stages was measured by recording the fluorescence emitted by viable cells at 708 nm in an Odyssey (Li-Cor) infrared imaging system after a 72-h period of incubation with different concentrations of the compounds. Dose-response curves were obtained by plotting the infrared fluorescence emission of viable parasites vs. different concentrations of testing compounds and were fitted by nonlinear analysis using the Sigma-Plot 10.0 statistical package. The reduction of infrared emission with respect to the negative control was used to determine the 50% effective concentration to kill the parasites (EC50). Both controls and treated groups were tested with DMSO (drug vehicle) concentrations below 0.1%. All compounds and controls were assayed in triplicate.
# [4] = test system: TopIB-DNA complexes in L. infantum promastigotes; experiment: SDS/K-DNA precipitation (in situ cleavage complex formation); type: cell-based, Leishmania infantum; conditions: 30 min exposure, promastigotes
# Method: In order to measure the fragmentation of DNA induced by Top poisons, L. infantum promastigotes, previously labeled with 0.5 mCi/mL [2–^14C] thymidine for 24 h, were exposed to different concentrations of indenoisoquinolines for 30 min, followed by precipitation with SDS/KCl, according to the method described previously ([Balaña-Fouce et al., 2012]). DNA fragmentation was determined as the percentage of total labeled DNA, and was calculated as follows: [(dpm in SDS/KCl drug - dpm in SDS/KCl solvent)/(dpm total incorporation)] x 100. Each experiment was run at least in triplicate.
# [5] = test system: L. infantum promastigotes; experiment: Cell cycle analysis by flow cytometry (propidium iodide); type: cell-based, Leishmania infantum; conditions: 1 μM single dose, 0, 8, 24, 48 h
# Method: One million promastigotes untreated or treated with 1 μM of different indenoisoquinolines were harvested by centrifugation after 0, 8, 24 and 48 h exposure. Promastigotes were washed twice with PBS and fixed by 1 h incubation with 70% methanol at 4 °C. After incubation, cells were centrifuged, washed again with PBS and resuspended in 0.5 mL of citrate buffer (45 mM MgCl2, 20 mM MOPS, 30 mM sodium citrate, 0.1% Triton X-100, pH = 7). Finally, samples with RNAase (50 μg/mL) and propidium iodide ([…]) were incubated at 37 °C during 30 min and analyzed at 589 nm by flow cytometry (Cyan ADP Dako).
# [6] = test system: Leishmania topoisomerase IB (LTopIB); experiment: Relaxation of supercoiled pSK DNA by recombinant LTopIB; type: biochemical
# Method: (§2) Expression and purification of LTopIB and hTopIB were carried out according to a previously standardized protocol ([Villa et al., 2003]). The effect of indenoisoquinolines (compounds 1 to 20) on recombinant LTopIB and hTopIB was determined by measuring the relaxation of negatively supercoiled pBluescript-SK DNA plasmid (pSK). Briefly, in a total volume of 20 μL, 100 U of recombinant TopIB were incubated with 0.5 μg of pSK DNA in 10 mM Tris-HCl buffer (pH 7.5), 5 mM MgCl2, 5 mM dithiothreitol (DTT), 0.1 mM EDTA, […] bovine serum albumin, and 150 mM KCl. Different concentrations of indenoisoquinolines were also added. Following a 4-min incubation period at 25 °C, reactions were stopped with 1% (w/v) SDS, and incubated for one extra hour at 37 °C in the presence of 1 mg/mL proteinase K. Subsequently, samples were extracted with 1 vol phenol-chloroform mixture and were loaded on a 1% agarose gel containing 0.1 μg/mL ethidium bromide. The gel was run for 16 h at 4 V/cm, and the images were acquired using a G-Box system (Syngene, United Kingdom).
# human Top IB (hTopIB) = molecular target: T1, human Top IB (hTopIB) (Homo sapiens, UniProt P11387); experiment: Relaxation of supercoiled pSK DNA by recombinant hTopIB; type: biochemical
# T1 construct: made in house
# T1 sequence (P11387 1-765): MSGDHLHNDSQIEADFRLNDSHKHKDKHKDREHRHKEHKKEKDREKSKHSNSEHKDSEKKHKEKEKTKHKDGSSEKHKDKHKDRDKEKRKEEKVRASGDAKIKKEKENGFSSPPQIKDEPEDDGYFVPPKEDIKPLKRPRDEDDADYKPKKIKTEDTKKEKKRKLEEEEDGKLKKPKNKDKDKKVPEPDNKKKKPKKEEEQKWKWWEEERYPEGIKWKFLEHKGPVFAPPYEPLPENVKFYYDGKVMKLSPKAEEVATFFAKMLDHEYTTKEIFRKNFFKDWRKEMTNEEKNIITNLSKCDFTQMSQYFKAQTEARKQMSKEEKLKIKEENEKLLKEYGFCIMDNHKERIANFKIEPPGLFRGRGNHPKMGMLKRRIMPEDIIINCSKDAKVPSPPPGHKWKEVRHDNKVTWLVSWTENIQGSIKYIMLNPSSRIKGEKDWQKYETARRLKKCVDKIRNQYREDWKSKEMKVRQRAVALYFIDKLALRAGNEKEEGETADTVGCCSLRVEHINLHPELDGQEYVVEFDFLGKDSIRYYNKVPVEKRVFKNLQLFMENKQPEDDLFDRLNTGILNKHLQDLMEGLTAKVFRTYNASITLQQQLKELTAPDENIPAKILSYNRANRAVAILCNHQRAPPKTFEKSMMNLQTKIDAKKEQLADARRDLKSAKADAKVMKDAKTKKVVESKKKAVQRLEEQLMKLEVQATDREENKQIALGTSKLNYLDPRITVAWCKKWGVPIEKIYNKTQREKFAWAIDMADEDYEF
# Method: as §2
# [7] = test system: iRFP L. infantum amastigotes infecting mouse splenocytes; experiment: Antileishmanial activity on iRFP L. infantum amastigotes in ex vivo murine splenic explants; type: cell-based, Leishmania infantum; conditions: for SI (Selectivity Index): CC50 (splenocytes)/EC50 (amastigotes); for EC50: Leishmania infantum, Splenocyte, splenic-infecting iRFP L. infantum amastigotes, 72 h, 37 °C, read-out: EC50 (μM) L. infantum amastigotes
# Method: Five-week BALB/c female mice infected intraperitoneally with 1.5 × 10^9 metacyclic iRFP L. infantum promastigotes were sacrificed to eviscerate their spleens, which were processed to obtain a suspension of primary splenocytes. Briefly, freshly dissected spleens were washed with cold phosphate-buffered saline (PBS), cut in small pieces and incubated for 20 min with 5 mL of 2 mg/mL collagenase D (Sigma) prepared in buffer (10 mM HEPES, pH 7.4, 150 mM NaCl, 5 mM KCl, 1 mM MgCl2 and 1.8 mM CaCl2). Then, the cell suspension was passed through a 100 μm cell strainer, harvested by centrifugation (500×g for 7 min at 4 °C), washed twice with PBS, and resuspended in RPMI medium (Gibco) supplemented with 10 mM HEPES, 1 mM sodium pyruvate, 1xRPMI 1640 vitamin mix, 10% (v/v) FBS, 50 U/mL penicillin and 50 μg/mL streptomycin. The cell suspension was cultured in 384-well optical bottom black plates (Thermo Scientific) at 37 °C under 5% CO2 atmosphere.
# as §1
# [8] = Cytotoxicity on uninfected mouse splenocytes (Alamar Blue); type: cell-based; conditions: BALB/c, freshly isolated uninfected mouse splenocytes, non-infected mouse splenocytes, read-out: CC50 (μM) Murine Splenocytes
# Method: Finally, the cytotoxicity of the compounds was assessed on freshly-isolated mouse splenocytes, which were obtained from uninfected BALB/c mice according to the protocol previously described. Viability of uninfected splenocytes was used to determine the cytotoxic concentration 50 (CC50) by means of the Alamar Blue staining method, according to manufacturer's recommendations (Invitrogen). Selectivity index (SI) for each compound was calculated as the ratio between the CC50 value obtained for splenic cells and the EC50 value for amastigotes.
SMILES,EC50 [1],"γH2A signal (H2A phosphorylation), Western blot [2]",EC50 [3],maximum percentage of SDS/K-DNA precipitable complexes [4],effect on cell cycle of promastigotes [5],LTopIB inhibition ([6]; Table 1),hTopIB inhibition (human Top IB (hTopIB); Table 1),SI (Selectivity Index) [7],EC50 [7],CC50 [8],LTopIB inhibition ([6]; Table 3),hTopIB inhibition (human Top IB (hTopIB); Table 3)
"CC[C@@]1(O)C(=O)OCc2c1cc1n(c2=O)Cc2cc3ccccc3nc2-1 [CPT, camptothecin]",30 nM,clear increase in the intensity of the 14-kDa band,,,,,,,,,,
NCCCn1c2c(c3ccc([N+](=O)[O-])cc3c1=O)C(=O)c1cc(F)ccc1-2 [Compound 7],,,1.28 ± 0.08 µM,33%,arrested the cell cycle of promastigotes in S phase,++ (inhibition at 10 μM),+++ (inhibition at 1 μM),8.4,0.04 µM,0.3 ± 0.07 µM,,
COc1cnc2c(c1)C(=O)c1c-2n(CCCN2CCOCC2)c(=O)c2ccc(OC)cc12 [Compound 17],,,2.92 ± 0.44 µM,,arrested the cell cycle of promastigotes in S phase,,,29.0,0.27 ± 0.08 µM,7.84 ± 0.77 µM,+++ (inhibition at 1 μM),+++ (inhibition at 1 μM)
COc1cnc2c(c1)C(=O)c1c-2n(CCCN2CCOCC2)c(=O)c2cc(OC)c(OC)cc12 [Compound 18],,,0.53 ± 0.07 µM,,arrested the cell cycle of promastigotes in S phase,,,29.3,0.13 ± 0.01 µM,3.81 ± 0.51 µM,++ (inhibition at 10 μM),++ (inhibition at 10 μM)
CCc1c2c(nc3ccc(O)cc13)-c1cc3c(c(=O)n1C2)COC(=O)[C@]3(O)CC [SN38],,clear increase in the intensity of the 14-kDa band,,,,,,,,,,
"CC[C@@]1(O)C(=O)OCc2c1cc1n(c2=O)Cc2cc3c(CN(C)C)c(O)ccc3nc2-1 [TPT, topotecan]",,clear increase in the intensity of the 14-kDa band,,,,,,,,,,
